Experimental findings from US5225607A, “Insecticidal ethers” (Imperial Chemical Industries PLC, priority 1985, dated 1993) are described below.

What all share (type): in vivo
A short description of test [1]: Insecticidal evaluation of fraction 1 and fraction 3 (resolved isomers). As to conditions: fraction 1 (92.9% isomer A) against fraction 3. How it is done:
(±)-1,1,1-trifluoro-2-(4-ethoxyphenyl)-3-(3-phenoxybenzyloxy)propane was resolved by high pressure liquid chromatography, using a Pirkle type 1A column (25 cm×4.9 mm) at -20° C., and n-hexane containing 1% by volume chloroform as eluent, at a flow rate of 0.7 cm^3 /minute. Elution was monitored using a UV detector at […]. Two isomers were detected:isomer A (retention time ca. 51 minutes) and isomer B (retention time ca. 54.6 minutes). A total of three fractions were collected.

Another test relates to Diabrotica balteata. Briefly: Insecticidal test, Diabrotica balteata (rootworm larvae), residual. The following applies: 72 h, filter paper/maize seed, 3 days, read-out: grading of mortality, DB. The essentials:
(§1)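 Compound dissolved in acetone, diluted with water containing 0.01% wetting agent to 500, 250 or 100 ppm. Pests on host plant or food; pests and/or medium treated. Mortality scored 1–3 days later, graded A (80–100%; 70–100% for S. exigua), B (50–79%; 50–69%), C (<50%).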

The next test has as its system Tetranychus urticae. Briefly: Insecticidal/acaricidal test, Tetranychus urticae (spider mites - adult), contact. The following applies: 72 h, French bean leaf, 3 days, read-out: grading of mortality, TU. Summed up: as §1
The subject of the next test is Nilaparvata lugens. Briefly: Insecticidal test, Nilaparvata lugens (brown planthopper), contact. As to conditions: 72 h, Cabbage leaf, 3 days, read-out: grading of mortality, NL. The essentials:
as §1

In another test the test system is Spodoptera exigua. Briefly: Insecticidal test, Spodoptera exigua (lesser armyworm), residual. The following applies: 72 h, cotton leaf, 3 days, read-out: grading of mortality, SE. The essentials:
as §1

The subject of a further test is Blattella germanica. As to the kind of experiment: Insecticidal test, Blattella germanica (cockroach nymphs), residual. The following applies: 72 h, plastic pot, 3 days, read-out: grading of mortality, BG. The essentials: as §1
Test [2] has as its system Musca domestica. Briefly: Knockdown test, Musca domestica (houseflies - adults). The following applies: cotton wool/sugar, 4 hours, read-out: grading of knockdown, MD/KD. Summed up: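 Adult houseflies were exposed to the compound as aqueous acetone preparations with 0.01% Lissapol NX wetting agent, at 500, 250 or 100 ppm. Knockdown was graded A (80–100%), B (50–79%) or C (<50%).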

Test [3] deals with Musca domestica. As to the kind of experiment: Insecticidal test, Musca domestica (houseflies - adults), contact. The following applies: 24 h, cotton wool/sugar, 1 day, read-out: grading of mortality, MD. Summed up:
as §1

Another test deals with Heliothis virescens. Briefly: whole plant or invertebrate. As to conditions: in Gossypium hirsutum, 72 h, read-out: grading of mortality, HV. Summed up: as §1
In the next test the test system is Myzus persicae. As to the kind of experiment: Insecticidal test, Myzus persicae (aphids), contact. As to conditions: 72 h, Chinese Cabbage leaf, 3 days, read-out: grading of mortality, MP. Summed up: as §1

For `CCOc1ccc(C(COCc2cccc(Oc3ccccc3)c2)C(F)(F)F)cc1` (single isomer, unassigned) [isomer A, (+)-1,1,1-trifluoro-2-(4-ethoxyphenyl)-3-(3-p-henoxybenzyloxy)-propane], the “insecticidal activity of isomer A relative to isomer B” value in [1] was “substantially more active than isomer B”.

`FC(F)(F)c1ccc(C(F)(COCc2cccc(Oc3ccccc3)c2)C(F)(F)F)cc1` (stereo not shown) [Compound 84, 1,1,1,2-Tetrafluoro-2-(4-trifluoromethylphenyl)-3-(3-phenoxybenzyloxy)propane]: the mortality (in general, the share of the test organisms that died) at 500 ppm is 80 to 100% with Diabrotica balteata; 80 to 100% with Tetranychus urticae; 80 to 100% with Nilaparvata lugens; 70 to 100% with Spodoptera exigua; 80 to 100% with Blattella germanica; 80 to 100% with Musca domestica [3]. For the same compound, the mortality at 500 ppm in the test with Heliothis virescens and in the test with Myzus persicae was 80 to 100% in each case. In addition, the pest or weed control at 500 ppm in the test with Musca domestica [2] was 80 to 100%.

As to `FC(F)(F)C(COCc1cccc(Oc2ccccc2)c1)c1ccc2c(c1)OCO2` (stereo not shown) [Compound 31, 1,1,1-Trifluoro-2-(3,4-methylenedioxyphenyl)-3-(3-phenoxybenzyloxy)propane], the mortality at 500 ppm in the test with Diabrotica balteata is 80 to 100%; with Tetranychus urticae, less than 50%; in the test on Nilaparvata lugens, 80 to 100%; with Spodoptera exigua, 70 to 100%; in the test with Blattella germanica, 80 to 100%; with Musca domestica [3], 80 to 100%. In addition, the mortality at 500 ppm in the test with Heliothis virescens and in the test on Myzus persicae was 80 to 100% in each case. In addition, the pest or weed control at 500 ppm with Musca domestica [2] lay in the range of 80 to 100%.

Take `Fc1ccc(COC=C(c2ccc(OC(F)(F)F)cc2)C(F)(F)F)cc1Oc1ccccc1` [Compound 462, 1,1,1-trifluoro-2-(4-trifluoromethoxyphenyl)-3-(3-phenoxy-4-fluorobenzyloxy)prop-2-ene]: the mortality at 100 ppm is 50 to 79% in the test on Diabrotica balteata; less than 50% with Tetranychus urticae; less than 50% with Nilaparvata lugens; 70 to 100% in the test on Spodoptera exigua; 80 to 100% in the test with Blattella germanica; 80 to 100% in the test on Musca domestica [3]. Besides, the results for the mortality at 100 ppm with Heliothis virescens and in the test on Myzus persicae were 80 to 100% and less than 50%, respectively. Also, the pest or weed control at 100 ppm with Musca domestica [2] fell in the range of 80 to 100%.

On to `Fc1ccc(C(Cl)(COCc2ccc(F)c(Oc3ccccc3)c2)C(F)(F)F)cc1` (stereo not shown) [Compound 51, 1,1,1-Trifluoro-2-chloro-2-(4-fluorophenyl)-3-(3-phenoxy-4-fluorobenzyloxy)propane], for which the mortality at 100 ppm in the test on Diabrotica balteata is 80 to 100%; with Tetranychus urticae, less than 50%; in the test on Nilaparvata lugens, 50 to 79%; with Spodoptera exigua, 70 to 100%; in the test on Blattella germanica, less than 50%; with Musca domestica [3], less than 50%. For the same compound, the results for the mortality at 100 ppm in the test with Heliothis virescens and in the test with Myzus persicae were 80 to 100% and less than 50%, respectively. In the test with Musca domestica [2], the pest or weed control at 100 ppm is less than 50%.

As for `FC(F)(F)Oc1ccc(C(COCc2cccc(Oc3ccccc3)n2)C(F)(F)F)cc1` (stereo not shown) [Compound 28, 1,1,1-Trifluoro-2-(4-trifluoromethoxyphenyl)-3-(6-phenoxy-2-pyridylmethyloxy)propane], the mortality at 100 ppm in the test on Diabrotica balteata was 80 to 100%; in the test with Tetranychus urticae, less than 50%; with Nilaparvata lugens it was 80 to 100%; with Spodoptera exigua, 70 to 100%; in the test on Blattella germanica, 80 to 100%; in the test with Musca domestica [3] it was 80 to 100%. In addition, the mortality at 100 ppm in the test with Heliothis virescens and with Myzus persicae was 80 to 100% each time. The pest or weed control at 100 ppm in the test on Musca domestica [2] was in the range of 80 to 100%.

`OC(COCc1cccc(Oc2ccc(Cl)cc2)c1)(c1ccc2c(c1)OCO2)C(F)(F)F` (stereo not shown) [Compound 129, 1,1,1-Trifluoro-2-(3,4-methylenedioxyphenyl)-3-(3-(4-chlorophenoxy)benzyloxy)propan-2-ol]: the mortality at 500 ppm was less than 50% in the test on Diabrotica balteata; less than 50% in the test on Tetranychus urticae; 80 to 100% in the test on Nilaparvata lugens; 70 to 100% in the test with Spodoptera exigua; less than 50% with Blattella germanica; 80 to 100% in the test on Musca domestica [3]. In addition, the mortality at 500 ppm in the test on Heliothis virescens and in the test on Myzus persicae was 50 to 79% each time. Moreover, the pest or weed control at 500 ppm in the test on Musca domestica [2] is 80 to 100%.
